In ChEMBL document CHEMBL4418269, “Novel Quinoline-Hepcidine Antagonists” (2012):

Target: T1, Hepcidin (Homo sapiens) (UniProt P81172)
T1 sequence (whole entry): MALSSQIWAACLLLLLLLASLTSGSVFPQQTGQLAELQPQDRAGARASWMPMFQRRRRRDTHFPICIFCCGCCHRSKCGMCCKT
Experiment: Inhibition of human hepcidin-stimulated recombinant C-terminal Halo-tagged human FPN internalization in MDCK cells at 10 uM incubated for 15 to 20 mins by Halo-tagged TMR based fluorescence assay relative to control
Format: cell-based

inhibition [%] | SMILES
< 50 | Oc1c(C(Nc2ccccn2)c2cccnc2)cc(Cl)c2cccnc12 (stereo unspecified)
< 50 | O=C(Oc1c(CN2CCOCC2)cc(Cl)c2cccnc12)c1ccccc1
> 50 | Oc1c(C(c2ccccn2)N2CCOCC2)ccc2cccnc12 (stereo unspecified)
< 50 | Oc1c(C(c2ccc(Cl)cc2)N2CCOCC2)cc(Cl)c2cccnc12 (stereo unspecified)
< 50 | O=C(Oc1c(CN2CCOCC2)cc(Cl)c2cccnc12)c1ccco1
< 50 | COc1cc(C(=O)Oc2c(CN3CCOCC3)cc(Cl)c3cccnc23)cc(OC)c1OC
